In patent US20150342847A1, “NOVEL DERIVATIVES OF SINAPINIC ACID AND THE COSMETIC OR PHARMACEUTICAL USES THEREOF” (BASF Beauty Care Solutions France SAS, priority 2012, published 2015):

Experiments:
Type in all cases: cell-based
[1] = tested on: keratinocytes from the A431 line; assay: Antiinflammatory activity: release of E2 prostaglandins by UVB-irradiated keratinocytes (ELISA); conditions: A431 keratinocytes, 30 μM, UV B 30 mJ/cm2, untreated irradiated control = 100%
Procedure: Study of the antiinflammatory activity of the hydroxytyrosol dihydrosinapate of the invention of formula (IIa), by measurement of the inhibition of release of E2 prostaglandins by keratinocytes under the effect of UVB.
The keratinocytes from the A431 line are cultured in an appropriate medium at 37° C. for 72 hours under 5% CO2. The culture medium is then withdrawn and replaced with the medium containing the products under test, and also the positive and negative controls. The cells are subsequently irradiated with UV B at 30 mJ/cm2. The cells are incubated for an extra 24 hours at 37° C. under 5% CO2. The cell supernatants are subsequently recovered, and the E2 prostaglandins (PGE2) released are quantified by an ELISA assay.
An amount of 100 μL of each sample, control or PGE2 standard is transferred to the wells of a 96-well plate, which are coated with antibodies directed against rat immunoglobulin G (IgG). Then an amount of 25 μL of PGE2-peroxidase conjugate is added to each well, followed by an amount of 25 μL of anti-PGE2 monoclonal antibody. The plate is incubated at 4° C. overnight. The wells are then rinsed and an amount of 100 μL of peroxidase substrate is added. After 15 minutes of incubation at ambient temperature, the optical density is read off at 450 nm. The amount of prostaglandin E2 released after irradiation is deduced from a commercial PGE2 standard range from 0 to 400 pg/mL of PGE2.
The negative control, represented by the cells which were not treated with samples and which underwent irradiation by UV B, gave rise to 100% release of PGE2. The positive experimental control is aspirin, which at 0.03% gave rise to 5%+/−2% release of PGE2.

[2] = tested on: melanocytes of murine line B16; assay: Inhibition of melanin production in B16 melanocytes stimulated with an α-MSH derivative; conditions: Mus musculus, B16 cells, 72 hours, read-out: % inhibition of melanin +/− standard deviation
Procedure: Determination of the percentage inhibition of melanin production by the hydroxytyrosol dihydrosinapate of the invention of formula (IIa) or the ferulic acid derivative of the prior art, by quantitative analysis of the total melanin synthesized by melanocytes of murine line B16 following application of the compound under test.
Melanocytes (B16 cells) are cultured for 24 hours in a 96-well plate in an appropriate medium. […] After 72 hours of incubation, the culture medium is withdrawn, and total melanin is quantified by measuring the absorbance at 405 nm against a standard range of synthetic melanin from 0.78 to 100 μg/mL.
The results are expressed as percentage inhibition of melanin production relative to the negative control, and are presented in Table 1.
The inhibitory activity on melanin production of the product tested is calculated as a percentage according to the following formula:
% inhibition=[(mean stimulated control−mean basal control)−(sample value−mean basal control)]/(mean stimulated control−mean basal control)×100
where: • Mean stimulated control: mean of the values obtained with a medium supplemented with an alpha-MSH derivative • Sample value: value obtained with the compound under test • Mean basal control: Mean of the values obtained with a medium not supplemented with an alpha-MSH derivative

[3] = target: T1, human tyrosinase (Homo sapiens, UniProt P14679); assay: Anti-human tyrosinase activity in normal human melanocytes (MBTH/L-Dopa, OD490)
T1 construct: endogenous in cells; host or cells: normal human melanocytes obtained from abdominal plasty
T1 sequence (P14679 19-529): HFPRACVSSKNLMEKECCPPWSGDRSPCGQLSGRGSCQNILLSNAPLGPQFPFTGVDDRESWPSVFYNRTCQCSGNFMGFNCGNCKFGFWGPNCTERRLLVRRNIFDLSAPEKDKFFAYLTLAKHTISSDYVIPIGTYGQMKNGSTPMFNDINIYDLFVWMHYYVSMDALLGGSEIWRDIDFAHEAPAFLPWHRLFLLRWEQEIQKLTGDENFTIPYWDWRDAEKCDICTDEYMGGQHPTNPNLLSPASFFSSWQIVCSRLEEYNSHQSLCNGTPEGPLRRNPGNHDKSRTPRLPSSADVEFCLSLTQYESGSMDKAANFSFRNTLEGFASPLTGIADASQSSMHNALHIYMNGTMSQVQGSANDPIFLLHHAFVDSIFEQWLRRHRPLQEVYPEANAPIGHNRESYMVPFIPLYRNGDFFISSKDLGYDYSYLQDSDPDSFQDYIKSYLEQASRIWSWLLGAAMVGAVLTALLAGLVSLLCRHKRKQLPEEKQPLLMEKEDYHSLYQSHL
Procedure: Study of the inhibition of tyrosinase by the hydroxytyrosol dihydrosinapate of the invention of formula (IIa), in comparison with the prior-art ferulic acid derivative, by quantitative analysis of the human tyrosinase activity of melanocytes cultured as a monolayer following application of the compound under test. Normal human melanocytes (obtained from abdominal plasty) are seeded in a 24-well plate at 80000 cells per well. They are cultured until confluence, and the compounds under test are applied in the culture media for 24 hours. After 24 hours, the media are removed and the melanocytes are detached by mechanical action. Extraction is carried out by thermal shock and then the supernatants are recovered and incubated with MBTH (methyl benzothiazolinone-hydrazone) (Sigma) and L-Dopa (Sigma). The optical density (OD) at 490 nm (OD490) is measured after 30 minutes of incubation, and the inhibition of tyrosinase is calculated according to the following formula: % inhibition=100−[100×(OD490 sample/level of proteins in sample)/(OD490 negative control/level of proteins in negative control)] The OD490 is therefore related to the level of protein, which is the measurement in each culture well. […] The results are presented as % inhibition of activity of tyrosinase, in Table 2.

[4] = tested on: melanocytes; assay: Cytotoxicity, MTT cell viability on melanocytes; conditions: for Percentage cell viability, Mean: MTT
Procedure: Study of cell viability following application of the hydroxytyrosol dihydrosinapate of the invention of formula (IIa) to keratinocytes or melanocytes.
The cells (keratinocytes or melanocytes) were cultured in a 96-well plate at 37° C. under 5% CO2 in an appropriate medium until confluence. The medium was withdrawn and then an amount of 200 μL of a 0.5 mg/mL MTT solution was added. The plates were then incubated at 37° C. for 3 hours, after which the MTT solution was withdrawn from each well and replaced with DMSO. The plates were agitated for 15 minutes, and the optical density was measured at 550 nm.
The negative cytotoxicity control is PBS. The positive cytotoxicity control is 0.25% SDS. 0.1% DMSO was used as control.

COc1cc(CCC(=O)OCCc2ccc(O)c(O)c2)cc(OC)c1O [Hydroxytyrosol dihydrosinapate (IIa), hydroxytyrosol dihydrosinapate]
% release of PGE2 after irradiation [1]: 22% | inhibition at 10 µM ([2]; 10 μM): 75% | inhibition at 30 µM ([2]; 30 μM): 106% | inhibition at 50 µM ([2]; 50 μM): 115% | inhibition of the activity of human tyrosinase (in words) ([3]; human tyrosinase in the melanocytes): does not inhibit the activity of the human tyrosinase | inhibition at 1 µM ([3]; normal human melanocytes, 1 μM, 24 hours, read-out: % inhibition of activity of tyrosinase +/− standard deviation): -5.85% | inhibition at 10 µM ([3]; normal human melanocytes, 10 μM, 24 hours, read-out: % inhibition of activity of tyrosinase +/− standard deviation): -4.53% | inhibition at 100 µM ([3]; normal human melanocytes, 100 μM, 24 hours, read-out: % inhibition of activity of tyrosinase +/− standard deviation): -36.6% | Percentage cell viability, Mean ([4]; 1 μM): 109.67% | Percentage cell viability, Mean ([4]; 10 μM): 107.53% | Percentage cell viability, Mean ([4]; 100 μM): 111.30% | cytotoxicity (in words) ([4]; 10^−6, 10^−5 and 10^−4 M, tolerated threshold 75% viability): not cytotoxic
